Type in all cases: functional, organism-based
Holding throughout (set-up): conc 20 uM

Test [1] concerns Mycobacterium intracellulare subsp. chimaera. Briefly: (§1) Inhibition of mycobacterial growth using the resazurin microtitre cell viability assay (REMA), compounds at final concentration of 20 µM (2% v/v DMSO). Hits were classed as compounds that inhibited bacterial growth by 70% or more compared to drug-free controls. Conditions: NCTC13781. Background: Resazurin is reduced to fluorescent resorufin, in cell work by metabolically active cells.

Test [2] concerns Mycobacteroides abscessus. The description is as §1. The settings on record: ATCC19977.
In test [3] the test system is Mycobacterium tuberculosis. The description is as §1. Conditions: H37Rv.

The source of these data is ChEMBL document CHEMBL4665541, “Search for new therapeutic options for the uncommon pathogen Mycobacterium chimaera: an open drug discovery approach” (Lancet Microbe, 2021).

Take MMV687251: the Survival is 88.3% in test [1], 116% in test [2] and 5.28% in test [3].
For MMV688557, the Survival is 101% in test [1], 101% in test [2] and 95.7% in test [3].
On to MMV676269, for which the results for the Survival in test [1], in test [2] and in test [3] were 104%, 111% and 88.8%, respectively.
In the same order, the values of MMV676050 are 95.8%, 110% and 84.8%.
As to MMV008439, the Survival is 99.8% in test [1], 112% in test [2] and 106% in test [3].
The like results for MMV687747 were, in that order, 90.2%, 108% and 63.6%.
The like results for MMV000011 were, in that order, 10.1%, 118% and 22.4%.
With MMV090930, the results for the Survival in test [1], in test [2] and in test [3] were 84.6%, 110% and 38.6%, respectively.
With MMV687794, the Survival is 99.9% in test [1], 109% in test [2] and 90.9% in test [3].
The like results for MMV024195 were, in that order, 94.1%, 103% and 74.2%.
The like results for MMV688548 were, in that order, 101%, 115% and 91.6%.
The like results for MMV675998 were, in that order, 94.7%, 117% and 89.7%.
For the substance MMV676474, the Survival was 88.6% in test [1], 99% in test [2] and 60.1% in test [3].
As for MMV688773, the Survival in test [1] is 94.7%; in test [2] it was 122%; in test [3], 82.8%.
Consider MMV688755, for which the results for the Survival in test [1], in test [2] and in test [3] were 107%, 111% and 7.68%, respectively.
The like results for MMV011691 were, in that order, 103%, 104% and 86.2%.
Turning to MMV001059, the Survival is 106% in test [1], 105% in test [2] and 89.4% in test [3].
In the same order, the values of MMV687703 are 3.71%, 105% and 4.55%.
Consider MMV045105, for which the Survival in test [1] was 102%; in test [2], 113%; in test [3] it was 107%.
The like results for MMV000907 were, in that order, 98.3%, 111% and 97.1%.
On to MMV1088520, for which the Survival in test [1] is 98.2%; in test [2] it was 110%; in test [3], 102%.
The like results for MMV022029 were, in that order, 99.1%, 118% and 90.8%.
With MMV676554, the Survival in test [1] is 41.2%; in test [2] it was 109%; in test [3], 29.4%.
In the same order, the values of MMV676589 are 89%, 116% and 70.1%.
The like results for MMV688703 were, in that order, 103%, 108% and 102%.
In the same order, the values of MMV688554 are 102%, 115% and 76%.
As to MMV675993, the Survival is 109% in test [1], 102% in test [2] and 92.9% in test [3].
The like results for MMV003152 were, in that order, 96.7%, 111% and 92.7%.
With MMV020152, the Survival in test [1] is 91.2%; in test [2], 118%; in test [3] it was 78.2%.
Take MMV688955: the Survival is 94.2% in test [1], 89.9% in test [2] and 103% in test [3].
In the same order, the values of MMV676555 are 39%, 123% and 71.2%.
In the same order, the values of MMV024829 are 103%, 119% and 88.9%.
The like results for MMV595321 were, in that order, 98.2%, 117% and 25.4%.
On to MMV011765, for which the values for the Survival in test [1], in test [2] and in test [3] were 70.9%, 108% and 89.2%, respectively.
Turning to MMV007471, the results for the Survival in test [1], in test [2] and in test [3] were 101%, 119% and 89.1%, respectively.
In the same order, the values of MMV688411 are 89.9%, 114% and 90%.
In the same order, the values of MMV688854 are 111%, 114% and 111%.
Take MMV689000: the Survival in test [1] was 101%; in test [2], 115%; in test [3] it was 89.8%.
Regarding MMV676270, the Survival is 102% in test [1], 108% in test [2] and 82.7% in test [3].
In the same order, the values of MMV023370 are 107%, 109% and 102%.
In the same order, the values of MMV001499 are 101%, 125% and 93.2%.
In the same order, the values of MMV688978 are 105%, 106% and 5.27%.
As for MMV676442, the Survival in test [1] is 97.1%; in test [2], 123%; in test [3], 86.8%.
The like results for MMV688122 were, in that order, 96.7%, 111% and 2.87%.
In the same order, the values of MMV085071 are 86.4%, 110% and 93.5%.
In the same order, the values of MMV024397 are 98.2%, 118% and 88.8%.
Regarding MMV000858, the Survival in test [1] is 118%; in test [2], 113%; in test [3], 105%.
For MMV004168, the Survival is 99.7% in test [1], 114% in test [2] and 90.2% in test [3].
On to MMV675968, for which the Survival in test [1] was 1.74%; in test [2], 87.6%; in test [3], 15%.
The like results for MMV676501 were, in that order, 91.8%, 104% and 14%.
In the case of MMV689060, the Survival in test [1] was 109%; in test [2] it was 119%; in test [3], 104%.
Regarding MMV688889, the Survival is 89.4% in test [1], 105% in test [2] and 58.9% in test [3].
In the same order, the values of MMV001561 are 103%, 103% and 91.3%.
The like results for MMV676386 were, in that order, 90.1%, 107% and 24%.
In the same order, the values of MMV010576 are 99%, 112% and 106%.
Take MMV688179: the figures for the Survival in test [1], in test [2] and in test [3] were 2.34%, 17.6% and 1.64%, respectively.
